Active and inactive are the calls of the source.
Tests used:
[1] = Luminescence Cell-Based Dose Confirmation HTS to Identify Inhibitors of Platelet Dense Granule Release. [Related pubchem assays: 1663 (Primary HTS), 1678 (Summary of Project)]; type: functional
[2] = target: Luciferin 4-monooxygenase (Photinus pyralis, UniProt P08659); experiment: inhibition of purified Photinus pyralis luciferase – biochemical, luminescence, dose response (AID 1891)
[3] = target: T1, Corticotropin-releasing factor receptor 2/Corticotropin-releasing factor-binding protein (Homo sapiens, UniProt P24387+Q13324); experiment: Dose Response confirmation of uHTS hits for small molecule antagonists of the CRF-binding protein and CRF-R2 receptor complex.; type: functional; conditions: read-out: IC50_Mean
T1 sequence (Q13324 whole entry): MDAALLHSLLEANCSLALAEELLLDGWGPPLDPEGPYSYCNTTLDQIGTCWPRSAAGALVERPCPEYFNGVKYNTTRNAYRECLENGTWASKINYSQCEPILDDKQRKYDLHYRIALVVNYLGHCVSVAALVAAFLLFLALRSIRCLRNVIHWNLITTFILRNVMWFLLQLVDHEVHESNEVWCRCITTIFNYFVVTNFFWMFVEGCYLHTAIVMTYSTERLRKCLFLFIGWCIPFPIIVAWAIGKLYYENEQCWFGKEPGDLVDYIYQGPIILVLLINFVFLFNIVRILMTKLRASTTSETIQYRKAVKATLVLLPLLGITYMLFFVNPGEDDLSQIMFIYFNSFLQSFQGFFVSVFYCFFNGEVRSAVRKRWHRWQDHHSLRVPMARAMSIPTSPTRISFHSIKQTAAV
T1 sequence (P24387 whole entry): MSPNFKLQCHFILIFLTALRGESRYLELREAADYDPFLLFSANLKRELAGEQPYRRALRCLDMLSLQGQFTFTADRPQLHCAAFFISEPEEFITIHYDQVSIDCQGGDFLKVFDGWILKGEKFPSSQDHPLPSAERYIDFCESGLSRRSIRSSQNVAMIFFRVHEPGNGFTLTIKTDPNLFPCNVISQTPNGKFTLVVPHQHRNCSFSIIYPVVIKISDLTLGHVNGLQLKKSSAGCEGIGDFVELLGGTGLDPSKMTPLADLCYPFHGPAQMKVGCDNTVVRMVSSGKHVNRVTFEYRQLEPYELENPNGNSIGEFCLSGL

[4] = target: T1, Corticotropin-releasing factor receptor 2/Corticotropin-releasing factor-binding protein; experiment: activators of CRF receptor 2 with binding protein – uHTS hits, confirmation (AID 602473); type: functional; conditions: read-out: EC50_Mean
[5] = viability of PTEN-deleted HCT116 cells – cell-based, HCT116 PTEN knockout, dose response (AID 1047); type: functional;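 note: HCT116 colon tumor cells with PTEN knocked out; cells exposed to compound for 60 hours before readout; potency for loss of cell viability measured by luminescence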
[6] = viability of HCT116 lacking mutant beta-catenin – cell-based, human colon tumor, dose response (AID 1045); type: functional;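 note: HCT116 colon tumor cells with beta catenin knocked out; cells exposed to compound for 60 hours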
Cytochrome P450 3A4 = Cytochrome P450 3A4 (Homo sapiens, UniProt P08684);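 note: CYP3A4 tested as one member of a cytochrome P450 panel screen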
Cytochrome P450 3A4, sequence (P08684 whole entry): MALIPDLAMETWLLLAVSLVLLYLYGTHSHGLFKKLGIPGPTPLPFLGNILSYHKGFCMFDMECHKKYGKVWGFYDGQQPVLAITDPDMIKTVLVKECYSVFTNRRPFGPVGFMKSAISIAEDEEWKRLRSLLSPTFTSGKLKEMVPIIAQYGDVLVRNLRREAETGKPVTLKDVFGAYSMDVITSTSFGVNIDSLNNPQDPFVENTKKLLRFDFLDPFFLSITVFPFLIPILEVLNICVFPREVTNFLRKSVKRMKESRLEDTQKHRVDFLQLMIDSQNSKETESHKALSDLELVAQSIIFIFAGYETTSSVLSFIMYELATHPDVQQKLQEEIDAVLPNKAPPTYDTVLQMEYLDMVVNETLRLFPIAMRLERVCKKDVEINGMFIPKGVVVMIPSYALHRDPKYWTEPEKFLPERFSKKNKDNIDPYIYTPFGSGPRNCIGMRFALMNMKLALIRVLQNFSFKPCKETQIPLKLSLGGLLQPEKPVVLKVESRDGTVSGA

Cytochrome P450 2C9 = Cytochrome P450 2C9 (Homo sapiens, UniProt P11712)
Cytochrome P450 2C9, sequence (P11712 whole entry): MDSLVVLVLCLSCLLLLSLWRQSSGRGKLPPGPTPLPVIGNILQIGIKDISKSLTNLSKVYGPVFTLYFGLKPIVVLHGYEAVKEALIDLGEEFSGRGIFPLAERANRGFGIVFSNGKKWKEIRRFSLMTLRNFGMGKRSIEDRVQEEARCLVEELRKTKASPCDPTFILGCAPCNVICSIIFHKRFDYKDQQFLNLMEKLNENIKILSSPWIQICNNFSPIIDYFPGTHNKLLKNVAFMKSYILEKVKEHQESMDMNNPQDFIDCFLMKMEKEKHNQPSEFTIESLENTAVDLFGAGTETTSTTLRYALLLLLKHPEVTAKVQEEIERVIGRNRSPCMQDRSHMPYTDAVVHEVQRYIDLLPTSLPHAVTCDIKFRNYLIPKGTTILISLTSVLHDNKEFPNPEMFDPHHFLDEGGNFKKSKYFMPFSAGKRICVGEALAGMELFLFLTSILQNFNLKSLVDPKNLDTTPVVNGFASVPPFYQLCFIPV

H4 = experiment: Luminescence Cell-Based Dose Response HTS to Identify Activators of 5'UTR Stem-Loop Driven Prion Protein mRNA Translation in H4 Neuroglioblastoma Cells. [Related pubchem assays: 1829 (Project Summary), 1814 (Primary HTS)]; type: functional; conditions: Homo sapiens
[7] = Luminescence Cell-Based Dose Response HTS to Identify Activators of Luciferase Translation or Activity in H4 […] Cells. [Related pubchem assays: 1829 (Project Summary), 1814 (Primary HTS)]; type: functional
[8] = Luminescence Cell-Based Dose Confirmation HTS to Identify Activators of 5'UTR Stem-Loop Driven Alpha-Synuclein mRNA Translation in H4 Neuroglioblastoma Cells. [Related pubchem assays: 1829 (Project Summary), 1814 (Primary HTS)]; type: functional
[9] = target: FAD-linked sulfhydryl oxidase ALR (Homo sapiens, UniProt P55789); experiment: ALR-catalysed DTT oxidation blockers – biochemical, H2O2 detection, luminescence, cherry-pick, dose response (AID 493248)
FAD-linked sulfhydryl oxidase ALR, sequence (P55789 whole entry): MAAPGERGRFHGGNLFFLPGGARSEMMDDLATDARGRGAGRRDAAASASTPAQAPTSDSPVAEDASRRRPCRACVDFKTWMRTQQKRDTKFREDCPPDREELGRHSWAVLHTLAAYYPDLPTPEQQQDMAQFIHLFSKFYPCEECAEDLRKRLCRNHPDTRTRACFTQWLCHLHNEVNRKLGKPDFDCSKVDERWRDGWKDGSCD

Cytochrome P450 2C19 = Cytochrome P450 2C19 (Homo sapiens, UniProt P33261); experiment: Cytochrome panel assay with activity outcomes. Panel member name: p450-cyp2c19 Compounds with AC50 equal or less than 10 uM are considered active; type: functional
Cytochrome P450 2C19, sequence (P33261 whole entry): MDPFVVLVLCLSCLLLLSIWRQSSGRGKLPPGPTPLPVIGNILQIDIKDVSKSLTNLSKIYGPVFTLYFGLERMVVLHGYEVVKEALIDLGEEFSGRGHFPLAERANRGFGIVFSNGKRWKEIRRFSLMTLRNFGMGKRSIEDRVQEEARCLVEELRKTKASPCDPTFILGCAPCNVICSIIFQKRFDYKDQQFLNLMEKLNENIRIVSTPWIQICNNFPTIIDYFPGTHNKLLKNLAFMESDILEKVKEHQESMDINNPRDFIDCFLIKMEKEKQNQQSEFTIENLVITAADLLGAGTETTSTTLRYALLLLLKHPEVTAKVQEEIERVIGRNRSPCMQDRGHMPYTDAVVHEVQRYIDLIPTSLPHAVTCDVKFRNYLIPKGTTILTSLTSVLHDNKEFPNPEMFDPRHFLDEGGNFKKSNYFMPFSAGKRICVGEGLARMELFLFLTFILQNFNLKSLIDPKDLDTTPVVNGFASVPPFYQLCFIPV

Cytochrome P450 1A2 = target: T2, Cytochrome P450 1A2 (Homo sapiens, UniProt P05177);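 note: PubChem cytochrome P450 panel assay, CYP1A2 panel member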
T2 sequence (P05177 whole entry): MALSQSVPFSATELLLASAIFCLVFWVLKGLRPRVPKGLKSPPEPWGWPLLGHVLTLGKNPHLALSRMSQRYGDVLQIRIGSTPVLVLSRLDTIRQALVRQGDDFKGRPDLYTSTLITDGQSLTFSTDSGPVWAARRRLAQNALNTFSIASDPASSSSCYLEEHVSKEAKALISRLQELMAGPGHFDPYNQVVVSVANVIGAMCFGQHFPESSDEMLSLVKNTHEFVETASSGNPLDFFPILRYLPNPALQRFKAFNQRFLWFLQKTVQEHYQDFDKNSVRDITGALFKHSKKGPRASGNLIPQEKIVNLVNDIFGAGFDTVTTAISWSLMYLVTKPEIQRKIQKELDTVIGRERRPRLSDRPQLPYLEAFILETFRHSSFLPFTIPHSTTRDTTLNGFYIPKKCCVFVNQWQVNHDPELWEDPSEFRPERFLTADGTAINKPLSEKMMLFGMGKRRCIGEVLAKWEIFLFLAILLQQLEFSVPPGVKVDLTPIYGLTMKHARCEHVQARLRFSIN

[10] = HIV-1 AD8 envelope cell-cell fusion blockers – cherry-pick, dose response (AID 652062); type: functional, cell-based;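 note: luciferase signal from cell-cell fusion driven by HIV-1 clade B AD8 Env; potency is for inhibitors of fusion seen as a drop in luminescence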
[11] = blockers of HIV-1 envelope-mediated cell-cell fusion – cherry-pick, dose response (AID 652057); type: functional, cell-based
[12] = P. falciparum Dd2 growth inhibitors, dose response, SYBR Green, cherry-picked samples (AID 1159567); type: functional, cell-based

Luciferin 4-monooxygenase, sequence (P08659 whole entry): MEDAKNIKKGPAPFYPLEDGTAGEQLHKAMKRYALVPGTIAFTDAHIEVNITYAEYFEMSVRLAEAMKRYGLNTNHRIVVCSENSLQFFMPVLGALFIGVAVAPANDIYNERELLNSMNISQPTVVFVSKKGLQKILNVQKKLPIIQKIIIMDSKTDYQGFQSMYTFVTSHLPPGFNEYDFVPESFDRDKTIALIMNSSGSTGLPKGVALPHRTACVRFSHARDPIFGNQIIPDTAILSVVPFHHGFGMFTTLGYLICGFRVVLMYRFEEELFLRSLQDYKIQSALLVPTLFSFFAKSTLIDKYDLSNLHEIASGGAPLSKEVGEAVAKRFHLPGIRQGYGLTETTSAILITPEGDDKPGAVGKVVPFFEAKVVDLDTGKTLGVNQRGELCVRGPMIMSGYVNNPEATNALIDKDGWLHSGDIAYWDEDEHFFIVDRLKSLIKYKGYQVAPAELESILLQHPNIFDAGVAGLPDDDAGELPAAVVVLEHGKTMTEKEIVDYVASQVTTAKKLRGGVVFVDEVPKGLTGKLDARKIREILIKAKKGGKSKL

COc1ccc(CCNC(=O)CSc2nc(N)c3c(C)c(C)oc3n2)cc1OC
EC50 [1]: > 112 µM (not active) | EC50 [2]: > 112 µM (not active)

O=C1c2ccccc2C(Nc2ccc(Cl)cn2)N1c1ccccn1 (stereo not given)
EC50 [1]: > 112 µM (not active) | EC50 [2]: > 112 µM (not active)

CCCCNC(=O)CCc1nc2cccnc2n1Cc1ccc(OC)cc1
IC50 [3]: > 47.1 µM (inactive) | EC50 [4]: > 53 µM (inactive)

COc1cccc(/C(O)=C/c2nc3ccc(C(=O)NCCc4ccc(Cl)cc4)cc3nc2O)c1
EC50 [5]: 4.26 µM (active) | EC50 [4]: 5.02 µM (active) | EC50 [6]: 4.16 µM (active)

C=CCn1c(C)cc(C(=O)CSc2nnc(Cc3ccccc3)o2)c1C
IC50 [3]: > 47.1 µM (inactive) | EC50 [4]: > 53 µM (inactive)

CN(C)c1ccnc(-c2cccc(NS(C)(=O)=O)c2)n1
AC50 (Cytochrome P450 3A4): 31.6 µM (inconclusive) | AC50 (Cytochrome P450 2C9): inconclusive

Cc1ccc(OCn2c(=O)sc3ccccc32)cc1
EC50 (H4): 14 µM (active) | EC50 [7]: 35.3 µM (active) | IC50 [3]: > 47.1 µM (inactive) | EC50 [8]: 42 µM (active) | EC50 [4]: > 53 µM (inactive)

CCOC(=O)c1cnc2c([N+](=O)[O-])cnn2c1C
EC50 [1]: > 112 µM (not active) | EC50 [2]: > 112 µM (not active)

COc1ccc(CNc2oc(COc3ccccc3)nc2C#N)cc1
IC50 [3]: > 47.1 µM (inactive) | EC50 [4]: > 53 µM (inactive)

CCCNC(=O)COC(=O)/C=C/c1ccco1
EC50 [1]: > 112 µM (not active) | EC50 [2]: > 112 µM (not active)

Cc1ccc(S(=O)(=O)n2nnc3ccccc32)c(C)c1C
IC50 [3]: > 47.1 µM (inactive) | EC50 [4]: > 53 µM (inactive)

COc1ccccc1NC(=O)c1cnc2n(c1=O)CCS2
AC50 (Cytochrome P450 3A4): 31.6 µM (inconclusive) | AC50 (Cytochrome P450 2C9): inconclusive

COc1cccc(C(=O)Nc2ccc(Cl)c(C(F)(F)F)c2)c1
EC50 [5]: 43.3 µM (active) | EC50 [6]: 60.1 µM (active)

O=C(NCc1ccc2c(c1)OCO2)C1CCN(S(=O)(=O)c2ccc(F)cc2)CC1
EC50 [1]: > 112 µM (not active) | EC50 [2]: > 112 µM (not active)

Cc1ccc(CNC(=O)CCS(=O)(=O)c2ccc(Br)s2)o1
EC50 [1]: > 112 µM (not active) | EC50 [2]: > 112 µM (not active)

Cc1ccc2oc(-c3cccc(NC(=O)C4CCCO4)c3)nc2c1 (stereo not given)
EC50 [1]: > 112 µM (not active) | EC50 [2]: 26.6 µM (active)

O=C(Nc1ccc(Cl)c(Cl)c1)Nc1ccccc1C(=O)O
AC50 [9]: 0.182 µM (active) | EC50 [1]: 8.59 µM (active) | EC50 [2]: 0.12 µM (active)

CN(C)c1nc(C#N)nc(N2CCOCC2)n1
AC50 (Cytochrome P450 2C19): inconclusive | AC50 (Cytochrome P450 2C9): inconclusive

Cn1nnnc1SCC(=O)NC1CCCc2ccccc21 (stereo not given)
EC50 [1]: > 112 µM (not active) | EC50 [2]: > 112 µM (not active)

CC(C)Nc1nc(NC(C)(C)C)nc(Oc2ccc(=O)n(-c3ccccc3)n2)n1
AC50 (Cytochrome P450 3A4): 12.6 µM (inconclusive) | EC50 [1]: > 112 µM (not active) | AC50 (Cytochrome P450 2C19): inconclusive | EC50 [2]: > 112 µM (not active)

CCOc1ccc(NC(=O)CCCN2C(=O)C(c3ccccc3)Oc3cccnc32)cc1 (stereo not given)
IC50 [3]: > 47.1 µM (inactive) | EC50 [4]: > 53 µM (inactive)

CCCCNCc1cc(Br)c(OCc2cccs2)c(OC)c1
EC50 [5]: 17 µM (active) | EC50 [6]: 16.6 µM (active)

Cc1ccc(-c2csc3nnc(SCC(=O)N4CCN(Cc5ccccc5)CC4)n23)cc1
IC50 [3]: > 47.1 µM (inactive) | EC50 [4]: > 53 µM (inactive)

Cc1ccccc1C(=O)NC(=S)NCC(=O)c1ccccc1
AC50 (Cytochrome P450 3A4): 28.2 µM (inconclusive) | AC50 (Cytochrome P450 2C9): inconclusive

COc1ccc(/C=C2\SC(=S)N(CC(=O)NCCO)C2=O)cc1
IC50 [3]: > 47.1 µM (inactive) | EC50 [4]: > 53 µM (inactive)

O=C(CN1C(=O)NC2(CCCC2)C1=O)c1ccc(Cl)s1
IC50 [3]: > 47.1 µM (inactive) | EC50 [4]: > 53 µM (inactive)

O=C(NNC1=Nc2cccc3cccc1c23)c1ccccc1Br
EC50 [5]: 21.9 µM (active) | EC50 [6]: 20.8 µM (active)

N#Cc1ccccc1Sc1ccccc1N
AC50 (Cytochrome P450 1A2): 22.4 µM (inconclusive) | IC50 [3]: > 47.1 µM (inactive) | EC50 [4]: > 53 µM (inactive)

CC1CCC(NC(=O)CCN2C(=O)C3CC=CCC3C2=O)CC1 (stereo not given)
IC50 [3]: > 47.1 µM (inactive) | EC50 [4]: > 53 µM (inactive)

CCN1C(=O)[C@H]2[C@@H](c3ccc(C(F)(F)F)cc3)N[C@]3(CCCN(Cc4ccccc4)C3=O)[C@H]2C1=O
AC50 [10]: 0.682 µM (active)

O=c1cc(Cc2ccc([N+](=O)[O-])cc2)[nH]c(=O)[nH]1
IC50 [3]: > 47.1 µM (inactive) | EC50 [4]: > 53 µM (inactive)

Clc1nccnc1N/N=C/c1ccc(Br)cc1
EC50 [1]: 4.81 µM (active) | EC50 [2]: 2.82 µM (active)

Cc1ccc(S(=O)(=O)N(C)C[C@@H]2Oc3ccc(NC(=O)Nc4ccc5c(c4)OCO5)cc3C(=O)N([C@H](C)CO)C[C@@H]2C)cc1
AC50 [10]: 5.55 µM (active) | AC50 [11]: 2.48 µM (active)

COc1ccc(S(=O)(=O)N(C)C[C@@H]2Oc3ccc(N(C)C)cc3C(=O)N([C@H](C)CO)C[C@@H]2C)cc1
AC50 [10]: 26.4 µM (active) | AC50 [11]: 12 µM (active)

C[C@@H]1CN([C@H](C)CO)C(=O)c2cccc(NS(=O)(=O)c3ccccc3)c2O[C@@H]1CN(C)Cc1ccc(Cl)c(Cl)c1
AC50 [10]: 1.67 µM (active) | AC50 [11]: < 0.26 µM (active)

C[C@H](CO)N1C[C@H](C)[C@H](CN(C)S(=O)(=O)c2ccccc2)Oc2ccc(NS(=O)(=O)c3ccccc3)cc2CC1=O
AC50 [10]: 13.6 µM (active) | AC50 [11]: 8.48 µM (active)

CCCN1[C@H](C(=O)N[C@@H](C)c2ccccc2)[C@@H](CO)[C@@H]2Cn3c(ccc(-c4cccc(F)c4)c3=O)[C@@H]21
AC50 [11]: 41.5 µM (active)

C/C(CC(=O)Nc1cc(Cl)ccc1Cl)=N\NC(N)=S
AC50 (Cytochrome P450 1A2): 12.6 µM (inconclusive) | AC50 (Cytochrome P450 2C19; read-out: AC50): 28.2 µM (inconclusive) | AC50 (Cytochrome P450 2C9): inconclusive

COC(=O)c1nn(-c2ccccc2)c(Sc2ccc(OC)cc2)c1/C=N/O
EC50 [1]: 28.5 µM (active) | EC50 [2]: > 112 µM (not active)

COc1ccccc1C#Cc1ccc2c(c1)[C@H]1[C@H](CCN1C(=O)CN1CCOCC1)[C@@H](CO)N2
AC50 [12]: 5.01 µM (active)

COc1ccc(C#Cc2ccc([C@@H]3[C@@H](CO)N4CCCCN(C(=O)Nc5ccccc5F)C[C@@H]34)cc2)cc1
AC50 [12]: 8.08 µM (active)

COc1ccccc1CNC(=O)C[C@H]1C[C@H]2c3cc(NC(=O)Cc4ccncc4)ccc3O[C@H]2[C@H](CO)O1
AC50 [12]: 5.4 µM (active)

N#C[C@@H]1[C@H](c2ccccc2-c2cccc(F)c2)[C@@H](CO)N1C(=O)C1CCCC1
AC50 [12]: 4.79 µM (active)

O=C(c1ccccc1F)N1CC(=O)N2[C@H](C1)[C@H](c1ccc(-c3ccccc3)cc1)[C@@H]2CO
AC50 [12]: 5.6 µM (active)
